Results: PMC3027353 (Journal of nuclear medicine : official publication, Society …, 2010)
Like-named read-outs stand apart in the source and are kept apart here.

Legend:
TSPO [1] = biological target: T1, TSPO (Rattus norvegicus, UniProt P16257); assay: Radioligand displacement of [^3H]PK 11195 by PBR06 in C6 glioma cell lysate; type: binding; conditions: C6 glioma cell line homogenates/lysate; non-linear regression; triplicate
TSPO [2] = biological target: T1, TSPO; type: in vivo; conditions: for K1/k2: 3-compartment, 4-rate constant model; for VT (total distribution volume): from graphical analysis, N = 4
TSPO [3] = biological target: T1, TSPO; conditions: in vivo
[4] = HPLC radiometabolite analysis of arterial plasma after [^18F]PBR06 injection; type: in vivo, rat
TSPO [5] = biological target: T1, TSPO; conditions: cited from earlier work

T1 sequence (P16257 whole entry): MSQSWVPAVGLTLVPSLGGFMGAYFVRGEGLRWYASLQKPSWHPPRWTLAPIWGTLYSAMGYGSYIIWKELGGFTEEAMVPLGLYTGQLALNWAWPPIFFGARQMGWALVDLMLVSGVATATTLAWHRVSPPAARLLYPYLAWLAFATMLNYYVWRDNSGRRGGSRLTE

SMILES: COc1ccc(OC)c(CN(C(=O)CF)c2ccccc2Oc2ccccc2)c1 [PBR06, N-fluoroacetyl-N-(2,5-dimethoxybenzyl)-2-phenoxyaniline]
- IC50, displacement of [^3H]PK 11195 (TSPO [1]): in the nanomolar range

SMILES: COc1ccc(OC)c(CN(C(=O)C[18F])c2ccccc2Oc2ccccc2)c1 [[^18F]PBR06, ^18F-N-fluoroacetyl-N-(2,5-dimethoxybenzyl)-2-phenoxyaniline]
- K1/k2 (TSPO [2]; Brain, mean ± S.E., N = 3): 6.164 ± 2.049 mL/g
- VT (total distribution volume) (TSPO [2]; Brain, mean ± S.E.): 13.07 ± 3.901 mL/g
- k3 (TSPO [2]; Brain, mean ± S.E., N = 3): 0.0714 ± 0.0261 min⁻¹
- k4 (TSPO [2]; Brain, mean ± S.E., N = 3): 0.00945 ± 0.005532 min⁻¹
- K1/k2 (TSPO [2]; Tumor, mean ± S.E., N = 3): 5.947 ± 1.982 mL/g
- VT (total distribution volume) (TSPO [2]; Tumor, mean ± S.E.): 63.90 ± 3.400 mL/g
- k3 (TSPO [2]; Tumor, mean ± S.E., N = 3): 0.3870 ± 0.1592 min⁻¹
- Plasma clearance (TSPO [2]; after initial spike following tracer injection): rapidly cleared from plasma
- Total radioactivity in tumor tissue relative to normal brain (TSPO [2]; last 20 minutes of the 90 min PET scan, C6 glioma-bearing rats): three- to four-fold higher
- Displaceable binding of [^18F]PBR06 in tumor (TSPO [3]): approximately 75%
- Tumor activity after PBR06 injection, as % of peak tumor uptake (TSPO [3]): approximately 25%
- Fraction of plasma radioactivity ([4]; at 45 min after [^18F]PBR06, 15 min after cold PBR06 infusion): 57%
- Fraction of plasma radioactivity ([4]; printed 'at 2.8 min' (2 min sample after [^18F]PBR06 injection)): 75%
- Fraction of plasma radioactivity ([4]; printed 'at 30 min' (25 min sample after [^18F]PBR06 injection)): 38%

SMILES: CN1C(=O)CN=C(c2ccc(Cl)cc2)c2cc(Cl)ccc21 [Ro5-4864]
- In vitro affinity for TSPO (TSPO [5]): low nanomolar range

SMILES: CCC(C)N(C)C(=O)c1cc2ccccc2c(-c2ccccc2Cl)n1 (centres unmarked) [PK 11195]
- In vitro affinity for TSPO (TSPO [5]): low nanomolar range
